According to publication PMC9790248, “Effects of CYP3A Inhibition, CYP3A Induction, and Gastric Acid Reduction on the Pharmacokinetics of Ripretinib, a Switch Control KIT Tyrosine Kinase Inhibitor” (Clinical Pharmacology in Drug Development, 2022):
Read-outs that look alike come from different tables or passages of the source.

What was measured:
[1] = Safety assessment (TEAEs), pantoprazole study; format: in vivo, human
Procedure: Participants were confined to the study center on days 1 through 16. On day 1, participants received an oral dose of ripretinib 50 mg under fasting conditions (Figure 1C). On days 8 through 13, participants received pantoprazole 40 mg once daily. On day 14, participants received pantoprazole 40 mg once daily and ripretinib 50 mg simultaneously under fasting conditions.
Relationship to study drug was assessed by the investigator.
Safety data were summarized as n (%).

[2] = Concentration-corrected QT interval analysis; format: in vivo; details: across a range of plasma concentration; data on file
Procedure: In the current study, itraconazole was administered as an oral solution on an empty stomach to ensure the highest oral absorption under fasting conditions and minimize gastrointestinal tract irritation during fasting. […] The tolerability of higher exposure is supported by previous safety and PK data.[7], [10] In a phase 1 study of ripretinib in patients with cancer, the maximum tolerated dose was not reached with doses up to ripretinib 200 mg twice daily.[7] Dose escalation to ripretinib 150 mg twice daily was offered to patients in a phase 1 and phase 3 clinical study after radiologic disease progression on 150 mg once daily.[7], [11] […] Steady‐state PK exposure following ripretinib 150 mg twice daily was approximately 2‐fold higher compared with ripretinib 150 mg once daily.[7], [10] […] However, the exposure–safety relationships were relatively shallow, and most AEs were Grades 1 and 2.

[3] = Safety assessment (TEAEs), itraconazole study
Procedure: On days 8 through 10, participants received itraconazole 200 mg once daily with a meal or snack. On day 11, participants received ripretinib 50 mg 1 hour after itraconazole 200 mg under fasting conditions. On days 12 through 17, participants received itraconazole 200 mg once daily with a meal or snack. […] Safety was assessed throughout and a follow‐up safety phone call was conducted at day 24 or 7 days after the last dose of study drug if participants withdrew early.
TEAEs were defined as adverse events (AEs) that occurred/worsened during or after administration of any of the study drugs. Relationship to study drug was assessed by the investigator. The safety population included all enrolled participants who received ≥1 dose of ripretinib.
Participant demographics, clinical characteristics, and PK parameters were summarized using descriptive statistics. Safety data were summarized as n (%). […] PK parameters were calculated using Phoenix® WinNonlin® v7.0 or higher (Certara USA Inc.).

[4] = Rifampin (strong CYP3A inducer) DDI study, plasma pharmacokinetics; format: in vivo, human; details: for AUC(0-t) / AUC(0-inf) / Cmax / half-life / Tmax: both sexes, human, plasma; for AUC(0-t) / AUC(0-inf) / Cmax / half-life: po; for Tmax: read-out: tmax, median (min, max); for Time postdose that mean plasma concentration remained above the LLOQ: LLOQ 2.00 ng/mL
Procedure: All studies were phase 1, fixed‐sequence, open‐label studies in healthy volunteers. One study consisted of two separate cohorts examining DDIs between ripretinib and itraconazole or pantoprazole, respectively; the rifampin study was conducted separately. Studies and cohorts were enrolled independently. Eligible participants were healthy male or female adults between 18 and 55 years of age with a body mass index (BMI) of ≥18.5 and ≤30 kg/m^2. Good health was confirmed by a physician and based on medical evaluation with no significant findings, including medical history, physical examination, laboratory tests, and 12‐lead electrocardiogram (ECG) at screening and day −1. Participants were required to abstain from alcohol, marijuana, grapefruit, Seville oranges, tangelo, star fruit, and grapefruit‐like products 14 days prior to and during the study. Participants with a positive breath test for Helicobacter pylori were excluded from the pantoprazole study.
Participants were confined to the study center from days −1 through 22 for the collection of plasma PK samples and all study procedures. Participants received an oral dose of ripretinib 100 mg on day 1 under fasting conditions; a higher dose of ripretinib was used than in the itraconazole or pantoprazole study due to the potential for decreased ripretinib exposure when coadministered with a strong CYP3A inducer (Figure 1B). On day 8, participants received oral doses of rifampin 600 mg once daily 1 hour before a meal with a full glass of water for 14 consecutive days through day 21. On day 18, participants received a second dose of ripretinib 100 mg administered simultaneously with rifampin 600 mg under fasting conditions. Blood samples for PK analysis were collected at predose and 1, 2, 3, 4, 5, 8, 10, 12, 24, 36, 48, 72, and 96 hours after administration of ripretinib on days 1 and 18. Safety was assessed throughout the study period and with a follow‐up phone call on day 29 or 7 days after discontinuation in the case of early withdrawal.
Ripretinib and its active metabolite DP‐5439 plasma concentrations were measured using a validated high‐performance liquid chromatography (HPLC) with tandem mass spectrometry (LC‐MS/MS) assay with a lower limit of quantification (LLOQ) of 2.00 ng/mL for both analytes. In this method, the analytes (ripretinib and DP‐5439) and the internal standards (ISs; DCC‐2618‐d5 and DP‐5439‐d5) were released from human plasma samples by protein precipitation. The supernatants were chromatographed using reversed‐phase HPLC with a Betasil® C8 analytical column with deionized water (0.1% formic acid) and 40/60 acetonitrile/acetone (0.1% formic acid) as the mobile phase. Mass spectrometric detection was performed on a triple quadrupole tandem mass spectrometer API 5000 or API 5500 (Applied Biosystems/MDS Sciex, Toronto, Canada) equipped with a turbo ion spray source operated in the positive ionization mode. The source parameters were collision energy 40 eV, collision gas 6 psi, Nebulizer Gas 1, Turbo IonSpray Gas 2, and curtain gas 35 psi. Quantification was obtained by using multiple reaction monitoring mode of the transitions of mass to charge ratio [m/z] 510.3 →417 for DCC‐2618 (ripretinib), m/z 496.2 →403 for DP‐5439, m/z 515.3 →417 for DCC‐2618‐d5, and m/z 501.2 →403 for DP‐5439‐d5.
Plasma concentration–time data were analyzed using noncompartmental methods using Phoenix® WinNonlin® v7.0 (Certara USA Inc., Princeton, New Jersey). Derived PK parameters included area under the concentration–time curve from time 0 to time t (AUC0–t) and area under the concentration–time curve from 0 to infinity (AUC0–∞), maximum observed concentration (Cmax), time of maximum observed concentration (tmax), elimination half‐life (t1/2), apparent systemic clearance, and for DP‐5439, metabolite to parent ratio for AUC0–t, AUC0–∞, and Cmax. […]

[5] = itraconazole study: ripretinib 50 mg alone and with itraconazole 200 mg QD, safety population N = 20
[6] = ripretinib 100 mg single oral dose + rifampin 600 mg QD, fasting, healthy participants (N = 21)
[7] = ripretinib 100 mg single oral dose alone, fasting, healthy participants (rifampin study, N = 21)
[8] = ripretinib 100 mg with rifampin 600 mg QD relative to ripretinib alone
[9] = ripretinib 100 mg with rifampin 600 mg QD relative to ripretinib alone, listed as ripretinib

## CCn1c(=O)c(-c2cc(NC(=O)Nc3ccccc3)c(F)cc2Br)cc2cnc(NC)cc21 [Ripretinib]
[1]; human, in vivo, 28 days
  Number of TEAEs attributed to study drug: 42
  Participants with TEAEs attributed to study drug per the investigator: 19 (76%) n (%)
  Total number of TEAEs: 63
[1]; pantoprazole study, N = 25
  Deaths and serious AEs: No deaths occurred and no participants experienced SAEs
[2]
  Concentration-corrected QT interval analysis: did not suggest particular concern
[3]; itraconazole study, N = 20
  Deaths and serious AEs: No deaths occurred and no participants experienced serious AEs
  Number of TEAEs attributed to study drug: 36
  Participants with TEAEs attributed to study drug per the investigator: 13 (65%) n (%)
  Total number of TEAEs: 44
[3]; [5]
  Participants reporting any TEAE: 14 (70.0) n (%)
  TEAE: ALT increase: 1 (5.0) n (%)
  TEAE: AST increase: 0 n (%)
  TEAE: Abdominal discomfort: 0 n (%)
  TEAE: Abdominal pain: 3 (15.0) n (%)
  TEAE: Abdominal pain lower: 1 (5.0) n (%)
  TEAE: Amylase increase: 4 (20.0) n (%)
  TEAE: Constipation: 1 (5.0) n (%)
  TEAE: Diarrhea: 4 (20.0) n (%)
  TEAE: Fatigue: 1 (5.0) n (%)
  TEAE: Headache: 2 (10.0) n (%)
  TEAE: Lipase increase: 5 (25.0) n (%)
  TEAE: Nausea: 2 (10.0) n (%)
  TEAE: Vomiting: 1 (5.0) n (%)
[3]; itraconazole study: ripretinib 50 mg alone and with itraconazole 200 mg QD, safety population N = 20, listed as ripretinib
  Participants reporting any TEAE: 14 (70%) n (%)
[4]; 100 mg, ripretinib 100 mg single oral dose alone, fasting, healthy participants (rifampin study, N = 21), read-out: AUC0–t, arithmetic mean (SD)
  AUC(0-t): 6620 ng·h/mL
[4]; 100 mg, ripretinib 100 mg single oral dose alone, fasting, healthy participants (rifampin study, N = 21), read-out: AUC0–t, geometric mean (CV%)
  AUC(0-t): 5720 ng·h/mL
[4]; 100 mg, ripretinib 100 mg single oral dose alone, fasting, healthy participants (rifampin study, N = 21), read-out: AUC0–∞, arithmetic mean (SD)
  AUC(0-inf): 6220 ng·h/mL
[4]; 100 mg, ripretinib 100 mg single oral dose alone, fasting, healthy participants (rifampin study, N = 21), read-out: AUC0–∞, geometric mean (CV%)
  AUC(0-inf): 5820 ng·h/mL
[4]; 100 mg, ripretinib 100 mg single oral dose alone, fasting, healthy participants (rifampin study, N = 21), read-out: Cmax, arithmetic mean (SD)
  Cmax: 392 ng/mL
[4]; 100 mg, ripretinib 100 mg single oral dose alone, fasting, healthy participants (rifampin study, N = 21), read-out: Cmax, geometric mean (CV%)
  Cmax: 363 ng/mL
[4]; 100 mg, ripretinib 100 mg single oral dose alone, fasting, healthy participants (rifampin study, N = 21), read-out: t1/2, arithmetic mean (SD) (converted)
  half-life: 15 h
[4]; 100 mg, ripretinib 100 mg single oral dose alone, fasting, healthy participants (rifampin study, N = 21), read-out: t1/2, geometric mean (CV%) (converted)
  half-life: 15 h
[4]; ripretinib 100 mg single oral dose + rifampin 600 mg QD, fasting, healthy participants (N = 21), read-out: AUC0–t, arithmetic mean (SD)
  AUC(0-t): 2360 ng·h/mL
[4]; ripretinib 100 mg single oral dose + rifampin 600 mg QD, fasting, healthy participants (N = 21), read-out: AUC0–t, geometric mean (CV%)
  AUC(0-t): 2230 ng·h/mL
[4]; ripretinib 100 mg single oral dose + rifampin 600 mg QD, fasting, healthy participants (N = 21), read-out: AUC0–∞, arithmetic mean (SD)
  AUC(0-inf): 2400 ng·h/mL
[4]; ripretinib 100 mg single oral dose + rifampin 600 mg QD, fasting, healthy participants (N = 21), read-out: AUC0–∞, geometric mean (CV%)
  AUC(0-inf): 2270 ng·h/mL
[4]; ripretinib 100 mg single oral dose + rifampin 600 mg QD, fasting, healthy participants (N = 21), read-out: Cmax, arithmetic mean (SD)
  Cmax: 321 ng/mL
[4]; ripretinib 100 mg single oral dose + rifampin 600 mg QD, fasting, healthy participants (N = 21), read-out: Cmax, geometric mean (CV%)
  Cmax: 299 ng/mL
[4]; ripretinib 100 mg single oral dose + rifampin 600 mg QD, fasting, healthy participants (N = 21), read-out: t1/2, arithmetic mean (SD) (converted)
  half-life: 7 h
[4]; ripretinib 100 mg single oral dose + rifampin 600 mg QD, fasting, healthy participants (N = 21), read-out: t1/2, geometric mean (CV%) (converted)
  half-life: 7 h
[4]; [6]
  Tmax: 3 h
  CL/F, arithmetic mean (SD): 47 (16) L/h
  CL/F, geometric mean (CV%): 44 (35) L/h
  t1/2, geometric mean (CV%): 6 (46) h
[4]; [7]
  Tmax: 3 h
  CL/F, arithmetic mean (SD): 18 (7) L/h
  CL/F, geometric mean (CV%): 17 (39) L/h
[4]; ripretinib 100 mg + rifampin 600 mg QD
  Exposure when combined with rifampin, relative to ripretinib alone: less than half
[4]; ripretinib 100 mg alone (rifampin study)
  Time postdose that mean plasma concentration remained above the LLOQ: up to 96 hours
[4]; [8]
  Geometric LS mean ratio of AUC0–t: 39%
  Geometric LS mean ratio of AUC0–∞ (90% CI): 39 (35–44) %
  Geometric LS mean ratio of Cmax (90% CI): 82 (72–94) %
[4]; [9]
  Geometric LS mean ratio of AUC0–∞ (90% CI): 39%
  Geometric LS mean ratio of Cmax (90% CI): 82%
[4]; ripretinib 100 mg with rifampin
  Time postdose that mean plasma concentration remained above the LLOQ: approximately 36 hours
